Test results published in patent publication US11000033B2, “Ketone or oxime compound, and herbicide” (NISSAN CHEMICAL CORPORATION, priority 2014, dated 2021).

Legend:
Type in all cases: in vivo
[1] = test system: Echinochloa crus-galli var. crus-galli; assay: Test Example 5: herbicidal effect by foliage application, plastic box (symbol H); settings: 320 g/ha, 3 weeks after application
Excerpt: (§1) Herbicidal Effect Test by Foliage Application
(§2) Sterilized diluvial soil was placed in a plastic box having a length of 21 cm, a width of 13 cm, and a depth of 7 cm. Each of the seeds of Digitaria ciliaris, Setaria viridis, Echinochloa crus-galli var. crus-galli, Avena fatua, Alopecurus myosuroides, Lolium multiflorum Lam., Apera spica-venti, Abutilon theophrasti, Amaranthus retroflexus, Chenopodium album, Stellaria media, Galium spurium, Veronica persica, corn, soybean, rice plant, wheat, beet, and rapeseed was sowed in a spot-like manner and was covered with the soil of a thickness of about 1.5 cm. Thereafter, the plants were grown in the greenhouse of 25° C. to 30° C. After the plants were grown for 14 days, the emulsion agent of the compound of the present invention prepared in accordance with Formulation Example 2 was diluted with water so as to be a predetermined herbicide amount and the diluted emulsion agent was uniformly applied to a foliage part with a small-size spray. 3 weeks later from the herbicide application, the effect to each plant was investigated in accordance with the criteria of Test Example 1.

Amaranthus retroflexus = assay: Test Example 5: herbicidal effect by foliage application, plastic box (symbol N); settings: 320 g/ha, 3 weeks after application
Excerpt: as §1, §2

corn = assay: Test Example 5: effect on crop by foliage application, plastic box (symbol c); settings: 320 g/ha, 3 weeks after application
Excerpt: as §1
(§3) Sterilized diluvial soil was placed in a plastic box having a length of 21 cm, a width of 13 cm, and a depth of 7 cm. Each of the seeds of Digitaria ciliaris, Setaria viridis, Echinochloa crus-galli var. crus-galli, Avena fatua, Alopecurus myosuroides, Lolium multiflorum Lam., Apera spica-venti, Abutilon theophrasti, Amaranthus retroflexus, Chenopodium album, Stellaria media, Galium spurium, Veronica persica, corn, soybean, rice plant, wheat, beet, and rapeseed was sowed in a spot-like manner and was covered with the soil of a thickness of about 1.5 cm. Thereafter, the plants were grown in the greenhouse of 25° C. to 30° C.

Leptochloa chinensis = assay: Test Example 3: herbicidal effect by foliage application, Wagner pot (symbol D); settings: application herbicide amount 320 g/ha
Description: as §1
(§4) After alluvial soil was placed into 1/10000 are of Wagner pot, water was poured and mixed to form a submerged condition having a water depth of 0.1 cm to 0.5 cm. Seeds of Echinochloa crus-galli var. crus-galli, Leptochloa chinensis, Cyperus difformis, and rice were sowed and the pot was placed in the greenhouse of 25° C. to 30° C. to grow the plants. After the plants were grown for 14 days, the emulsion agent of the compound of the present invention prepared in accordance with Formulation Example 2 was diluted with water so as to be a predetermined herbicide amount and the diluted emulsion agent was uniformly applied to a foliage part with a small-size spray. 3 weeks later from the herbicide application, the effect to each plant was investigated in accordance with the criteria of Test Example 1.

Chenopodium album = assay: Test Example 5: herbicidal effect by foliage application, plastic box (symbol O); settings: 320 g/ha, 3 weeks after application
Excerpt: as §1, §2

[2] = test system: directly sowed rice plant; assay: Test Example 3: effect on crop by foliage application, Wagner pot (symbol b); settings: application herbicide amount 320 g/ha
Description: as §1
After alluvial soil was placed into 1/10000 are of Wagner pot, water was poured and mixed to form a submerged condition having a water depth of 0.1 cm to 0.5 cm. Seeds of Echinochloa crus-galli var. crus-galli, Leptochloa chinensis, Cyperus difformis, and rice were sowed and the pot was placed in the greenhouse of 25° C. to 30° C. to grow the plants.

Apera spica-venti = assay: Test Example 5: herbicidal effect by foliage application, plastic box (symbol L); settings: 320 g/ha, 3 weeks after application
Excerpt: as §1, §2

Veronica persica = assay: Test Example 5: herbicidal effect by foliage application, plastic box (symbol R); settings: 320 g/ha, 3 weeks after application
Excerpt: as §1, §2

soybean = assay: Test Example 5: effect on crop by foliage application, plastic box (symbol d); settings: 320 g/ha, 3 weeks after application
Excerpt: as §1, §3

[3] = test system: Echinochloa crus-galli var. crus-galli; assay: Test Example 3: herbicidal effect by foliage application, Wagner pot (symbol H); settings: application herbicide amount 320 g/ha
Description: as §1, §4

Digitaria ciliaris = assay: Test Example 5: herbicidal effect by foliage application, plastic box (symbol F); settings: 320 g/ha, 3 weeks after application
Excerpt: as §1, §2

rice plant = assay: Test Example 5: effect on crop by foliage application, plastic box (symbol b); settings: 320 g/ha, 3 weeks after application
Excerpt: as §1, §3

Alopecurus myosuroides = assay: Test Example 5: herbicidal effect by foliage application, plastic box (symbol J); settings: 320 g/ha, 3 weeks after application
Excerpt: as §1, §2

wheat = assay: Test Example 5: effect on crop by foliage application, plastic box (symbol e); settings: 320 g/ha, 3 weeks after application
Excerpt: as §1, §3

Avena fatua = assay: Test Example 5: herbicidal effect by foliage application, plastic box (symbol I); settings: 320 g/ha, 3 weeks after application
Excerpt: as §1, §2

beet = assay: Test Example 5: effect on crop by foliage application, plastic box (symbol f); settings: 320 g/ha, 3 weeks after application
Excerpt: as §1, §3

Setaria viridis = assay: Test Example 5: herbicidal effect by foliage application, plastic box (symbol G); settings: 320 g/ha, 3 weeks after application
Excerpt: as §1, §2

Stellaria media = assay: Test Example 5: herbicidal effect by foliage application, plastic box (symbol P); settings: 320 g/ha, 3 weeks after application
Excerpt: as §1, §2

rapeseed = assay: Test Example 5: effect on crop by foliage application, plastic box (symbol g); settings: 320 g/ha, 3 weeks after application
Excerpt: as §1, §3

Cyperus difformis = assay: Test Example 3: herbicidal effect by foliage application, Wagner pot (symbol E); settings: application herbicide amount 320 g/ha
Description: as §1, §4

Abutilon theophrasti = assay: Test Example 5: herbicidal effect by foliage application, plastic box (symbol M); settings: 320 g/ha, 3 weeks after application
Excerpt: as §1, §2

[4] = test system: Echinochloa oryzacola Vasing.; assay: Test Example 2: herbicidal activity, application during weed generation in submerged conditions (symbol A); settings: Table 23; application herbicide amount 320 g/ha; grade 0-5 by criteria of Test Example 1
Description: (§5) Herbicidal Activity Test by Application During Weed Generation in Submerged Conditions
(§6) After alluvial soil was placed into 1/10000 are of Wagner pot, water was poured and mixed to form a submerged condition having a water depth of 4 cm. Seeds of Echinochloa oryzacola Vasing., Scirpus juncoides, and Monochoria vaginalis were sowed in a mixed manner in the above pot and the pot was placed in the greenhouse of 25° C. to 30° C. to grow the plants. When Echinochloa oryzacola Vasing., Scirpus juncoides, and Monochoria vaginalis were grown to one leaf stage to two leaf stage, the emulsion agent of the compound of the present invention prepared in accordance with Formulation Example 2 was diluted with water so as to be a predetermined herbicide amount and the diluted emulsion agent was applied to the surface of the water. 3 weeks later from the herbicide application, the effect to each plant was investigated in accordance with the criteria of Test Example 1.

Monochoria vaginalis = assay: Test Example 2: herbicidal activity, application during weed generation in submerged conditions (symbol C); settings: Table 23; application herbicide amount 320 g/ha; grade 0-5 by criteria of Test Example 1
Description: as §5, §6

Scirpus juncoides [5] = assay: Test Example 1: herbicidal activity, application before weed generation in submerged conditions (symbol B); settings: application herbicide amount 320 g/ha
Excerpt: (§7) Herbicidal Activity Test by Application Before Weed Generation in Submerged Conditions
as §6, with “thereafter 2.5” for “the pot was placed in the greenhouse of 25° C. to 30° C. to grow the plants. When Echinochloa oryzacola Vasing., Scirpus juncoides, and Monochoria vaginalis were grown to one”, “rice plant seedlings were transplanted thereto. On the day of sowing seeds,” for “to two leaf stage,”, “water. The pot was placed in a greenhouse of 25° C. to 30° C. to grow plant.” for “water.”, “following criteria.” for “criteria of Test Example 1.”
(§8) 5 Herbicidal ratio of 90% or more (almost completely withered)
(§9) 4 Herbicidal ratio of 70% or higher and lower than 90%
(§10) 3 Herbicidal ratio of 40% or higher and lower than 70%
(§11) 2 Herbicidal ratio of 20% or higher and lower than 40%
(§12) 1 Herbicidal ratio of 5% or higher and lower than 20%
(§13) 0 Herbicidal ratio of 5% or lower (almost no effect)

transplanted rice plant = assay: Test Example 1: effect on crop, application before weed generation in submerged conditions (symbol a); settings: application herbicide amount 320 g/ha
Description: as §7
After alluvial soil was placed into 1/10000 are of Wagner pot, water was poured and mixed to form a submerged condition having a water depth of 4 cm. Seeds of Echinochloa oryzacola Vasing., Scirpus juncoides, and Monochoria vaginalis were sowed in a mixed manner in the above pot and thereafter 2.5 leaf stage rice plant seedlings were transplanted thereto. […] The pot was placed in a greenhouse of 25° C. to 30° C. to grow plant. 3 weeks later from the herbicide application, the effect to each plant was investigated in accordance with the following criteria.
as §8, §9, §10, §11, §12, §13

Scirpus juncoides [6] = assay: Test Example 2: herbicidal activity, application during weed generation in submerged conditions (symbol B); settings: Table 23; application herbicide amount 320 g/ha; grade 0-5 by criteria of Test Example 1
Description: as §5, §6

[7] = test system: Echinochloa oryzacola Vasing.; assay: Test Example 1: herbicidal activity, application before weed generation in submerged conditions (symbol A); settings: application herbicide amount 320 g/ha
Excerpt: as §7
as §6, with “thereafter 2.5” for “the pot was placed in the greenhouse of 25° C. to 30° C. to grow the plants. When Echinochloa oryzacola Vasing., Scirpus juncoides, and Monochoria vaginalis were grown to one”, “rice plant seedlings were transplanted thereto. On the day of sowing seeds,” for “to two leaf stage,”, “water. The pot was placed in a greenhouse of 25° C. to 30° C. to grow plant.” for “water.”, “following criteria.” for “criteria of Test Example 1.”
as §8, §9, §10, §11, §12, §13

## CON=C(C)CC1CC(O)=C(c2c(C)cc(NC(=O)OC(C)(C)C)cc2C)C1=O (mixture of isomers) [6-033]
[1]
  H: Echinochloa crus-galli var. crus-galli, herbicidal effect grade: 1 (Herbicidal ratio of 5% or higher and lower than 20%)
Amaranthus retroflexus
  N: Amaranthus retroflexus, herbicidal effect grade: 0 (Herbicidal ratio of 5% or lower (almost no effect))
corn
  c: corn, effect on crop grade: 3 (Herbicidal ratio of 40% or higher and lower than 70%)
Leptochloa chinensis
  herbicidal effect on D (Leptochloa chinensis), grade 0-5: 0 (Herbicidal ratio of 5% or lower (almost no effect))
Chenopodium album
  O: Chenopodium album, herbicidal effect grade: 0 (Herbicidal ratio of 5% or lower (almost no effect))
[2]
  effect on crop b (directly sowed rice plant), grade 0-5: 0 (Herbicidal ratio of 5% or lower (almost no effect))
Apera spica-venti
  L: Apera spica-venti, herbicidal effect grade: 0 (Herbicidal ratio of 5% or lower (almost no effect))
Veronica persica
  R: Veronica persica, herbicidal effect grade: 0 (Herbicidal ratio of 5% or lower (almost no effect))
soybean
  d: soybean, effect on crop grade: 0 (Herbicidal ratio of 5% or lower (almost no effect))
[3]
  herbicidal effect on H (Echinochloa crus-galli var. crus-galli), grade 0-5: 0 (Herbicidal ratio of 5% or lower (almost no effect))
Digitaria ciliaris
  F: Digitaria ciliaris, herbicidal effect grade: 0 (Herbicidal ratio of 5% or lower (almost no effect))
Rice plant
  b: directly sowed rice plant, effect on crop grade: 3 (Herbicidal ratio of 40% or higher and lower than 70%)
Alopecurus myosuroides
  J: Alopecurus myosuroides, herbicidal effect grade: 0 (Herbicidal ratio of 5% or lower (almost no effect))
wheat
  e: wheat, effect on crop grade: 0 (Herbicidal ratio of 5% or lower (almost no effect))
Avena fatua
  I: Avena fatua, herbicidal effect grade: 3 (Herbicidal ratio of 40% or higher and lower than 70%)
beet
  f: beet, effect on crop grade: 0 (Herbicidal ratio of 5% or lower (almost no effect))
Setaria viridis
  G: Setaria viridis, herbicidal effect grade: 0 (Herbicidal ratio of 5% or lower (almost no effect))
Stellaria media
  P: Stellaria media, herbicidal effect grade: 0 (Herbicidal ratio of 5% or lower (almost no effect))
rapeseed
  g: rapeseed, effect on crop grade: 1 (Herbicidal ratio of 5% or higher and lower than 20%)
Cyperus difformis
  herbicidal effect on E, grade 0-5: 3 (Herbicidal ratio of 40% or higher and lower than 70%)
Abutilon theophrasti
  M: Abutilon theophrasti, herbicidal effect grade: 0 (Herbicidal ratio of 5% or lower (almost no effect))

## CON=C(C)CC1CC(O)=C(c2c(C)cc(SC)cc2C)C1=O (stereo not shown) [6-024]
Leptochloa chinensis
  herbicidal effect on D (Leptochloa chinensis), grade 0-5: 2 (Herbicidal ratio of 20% or higher and lower than 40%)
[2]
  effect on crop b (directly sowed rice plant), grade 0-5: 3 (Herbicidal ratio of 40% or higher and lower than 70%)
[3]
  herbicidal effect on H (Echinochloa crus-galli var. crus-galli), grade 0-5: 3 (Herbicidal ratio of 40% or higher and lower than 70%)
[4]
  Herbicidal effect grade, A: Echinochloa oryzacola Vasing.: 1 (Herbicidal ratio of 5% or higher and lower than 20%)
Monochoria vaginalis
  Herbicidal effect grade, C: Monochoria vaginalis: 0 (Herbicidal ratio of 5% or lower (almost no effect))
Scirpus juncoides [5]
  Herbicidal effect grade, B: Scirpus juncoides: 2 (Herbicidal ratio of 20% or higher and lower than 40%)
Transplanted rice plant
  Effect grade on crop, a: transplanted rice plant: 3 (Herbicidal ratio of 40% or higher and lower than 70%)
Scirpus juncoides [6]
  Herbicidal effect grade, B: Scirpus juncoides: 0 (Herbicidal ratio of 5% or lower (almost no effect))
Cyperus difformis
  herbicidal effect on E, grade 0-5: 3 (Herbicidal ratio of 40% or higher and lower than 70%)
[7]
  Herbicidal effect grade, A: Echinochloa oryzacola Vasing.: 3 (Herbicidal ratio of 40% or higher and lower than 70%)
